Laboratory results reported in publication PMC5717064, “Alternative substrate-bound conformation of bacterial solute-binding protein involved in the import of mammalian host glycosaminoglycans” (Scientific Reports, 2017).

Columns and labels:
[1] = target: T1, Smon0121-Smon0122/Smon0120-Smon0120 (Streptobacillus moniliformis, UniProt D1AWD7); conditions: in presence of Smon0123 and disaccharide ligands
T1 construct: gene Smon_0120

[2] = target: T2, Smon0123 (N-18/C-5) (Streptobacillus moniliformis, UniProt D1AWE0); test: X-ray crystallography, […] Å; format: binding; conditions: pH 7.5, 20 °C, calcium bound; cleft between N and C domains
T2 construct: gene Smon_0123; N-terminal 18 and C-terminal 5 residues truncated (starts Met1-Lys19), expressed in E. coli, purified by DEAE and Superdex 200
T2 sequence (D1AWE0 entry or part of it): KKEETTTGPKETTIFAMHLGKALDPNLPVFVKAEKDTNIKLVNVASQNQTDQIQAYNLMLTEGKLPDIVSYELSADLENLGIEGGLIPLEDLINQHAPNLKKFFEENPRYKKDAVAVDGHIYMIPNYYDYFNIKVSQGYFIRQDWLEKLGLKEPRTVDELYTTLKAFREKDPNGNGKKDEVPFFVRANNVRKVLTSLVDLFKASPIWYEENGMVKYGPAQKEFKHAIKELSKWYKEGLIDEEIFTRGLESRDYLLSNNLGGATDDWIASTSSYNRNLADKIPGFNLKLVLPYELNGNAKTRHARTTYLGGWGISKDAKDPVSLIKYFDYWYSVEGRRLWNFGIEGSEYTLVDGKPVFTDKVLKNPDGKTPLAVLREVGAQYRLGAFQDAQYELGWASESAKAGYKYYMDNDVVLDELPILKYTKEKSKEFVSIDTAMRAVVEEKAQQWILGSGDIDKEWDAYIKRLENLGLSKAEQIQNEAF

[3] = target: T3, Smon0123 (full-length) (Streptobacillus moniliformis, UniProt D1AWE0); test: intrinsic tryptophan fluorescence titration; format: binding; conditions: 0.1 μM protein, 0-20 μM ligand, excitation 280 nm
T3 construct: gene Smon_0123; full-length protein, expressed in E. coli, purified by TALON, Resource Q and Superdex 200; tag not described; about 57 kDa, monomer
T3 sequence (D1AWE0 entry or part of it): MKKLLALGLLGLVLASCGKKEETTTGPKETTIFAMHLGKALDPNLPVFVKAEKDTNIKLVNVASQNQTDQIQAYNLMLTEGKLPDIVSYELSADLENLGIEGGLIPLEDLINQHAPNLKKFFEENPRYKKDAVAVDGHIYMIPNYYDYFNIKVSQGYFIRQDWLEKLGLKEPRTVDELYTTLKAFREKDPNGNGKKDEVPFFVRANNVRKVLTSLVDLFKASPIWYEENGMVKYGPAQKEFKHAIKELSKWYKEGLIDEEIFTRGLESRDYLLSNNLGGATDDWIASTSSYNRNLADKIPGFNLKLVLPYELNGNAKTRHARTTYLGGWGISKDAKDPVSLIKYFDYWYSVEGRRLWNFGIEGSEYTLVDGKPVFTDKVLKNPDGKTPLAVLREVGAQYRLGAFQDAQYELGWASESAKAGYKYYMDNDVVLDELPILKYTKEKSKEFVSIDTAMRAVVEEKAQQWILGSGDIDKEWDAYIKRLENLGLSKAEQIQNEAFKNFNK

[4] = target: T2, Smon0123 (N-18/C-5); test: X-ray crystallography, […] Å; format: binding; conditions: pH 7.5; crystallised with CΔ4S6S, CΔ4S found in the cleft (contaminant or desulfation); construct printed only as Smon0123; not deposited

T1 sequence (D1AWD7 entry or part of it): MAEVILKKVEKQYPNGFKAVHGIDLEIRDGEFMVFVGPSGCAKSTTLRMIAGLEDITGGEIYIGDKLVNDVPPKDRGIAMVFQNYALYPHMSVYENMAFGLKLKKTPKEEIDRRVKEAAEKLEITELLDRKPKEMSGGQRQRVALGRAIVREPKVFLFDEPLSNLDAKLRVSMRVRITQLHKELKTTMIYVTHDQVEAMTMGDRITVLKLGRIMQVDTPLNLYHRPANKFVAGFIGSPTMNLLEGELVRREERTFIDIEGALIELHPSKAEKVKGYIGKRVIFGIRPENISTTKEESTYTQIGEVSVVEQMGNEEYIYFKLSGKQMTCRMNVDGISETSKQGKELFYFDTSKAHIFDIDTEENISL
T1 sequence (D1AWD8 entry or part of it, further chain): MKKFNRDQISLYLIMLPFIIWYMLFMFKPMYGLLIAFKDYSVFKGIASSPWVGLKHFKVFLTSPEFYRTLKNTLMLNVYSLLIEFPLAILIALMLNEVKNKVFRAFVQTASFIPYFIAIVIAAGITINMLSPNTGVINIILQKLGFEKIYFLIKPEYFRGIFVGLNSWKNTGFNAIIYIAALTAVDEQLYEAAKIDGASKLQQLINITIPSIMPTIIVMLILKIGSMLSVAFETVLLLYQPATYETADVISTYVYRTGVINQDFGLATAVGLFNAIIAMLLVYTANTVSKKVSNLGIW
T1 sequence (D1AWD9 entry or part of it, further chain): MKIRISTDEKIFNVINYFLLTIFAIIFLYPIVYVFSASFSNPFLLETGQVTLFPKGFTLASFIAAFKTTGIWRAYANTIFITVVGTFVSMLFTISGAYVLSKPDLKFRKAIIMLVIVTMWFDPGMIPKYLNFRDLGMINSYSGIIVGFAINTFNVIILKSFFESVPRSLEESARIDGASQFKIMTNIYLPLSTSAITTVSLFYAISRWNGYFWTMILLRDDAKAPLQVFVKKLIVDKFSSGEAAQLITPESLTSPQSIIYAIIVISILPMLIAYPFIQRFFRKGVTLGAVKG

Nc1ncnc2c1ncn2[C@@H]1O[C@H](COP(=O)(O)OP(=O)(O)OP(=O)(O)O)[C@@H](O)[C@H]1O [ATP]
molybdenum blue phosphate release, proteoliposomes [1]: phosphate ion concentration generated through ATP hydrolysis in the presence of Smon0123 and ligands

CC(=O)N[C@H]1C(O)O[C@H](COS(=O)(=O)O)[C@H](OS(=O)(=O)O)[C@@H]1O[C@@H]1OC(C(=O)O)=C[C@H](O)[C@H]1O (stereo partly shown) [CΔ4S6S]
X-ray crystallography, 1.95 Å [2]: The coordinates and structure factors of Smon0123/CΔ4S6S have been deposited in the Protein Data Bank | Kd [3]: 3.86 ± 0.243 µM

CC(=O)N[C@H]1C(O)O[C@H](CO)[C@H](OS(=O)(=O)O)[C@@H]1O[C@@H]1OC(C(=O)O)=C[C@H](O)[C@H]1O (stereo partly shown) [CΔ4S]
X-ray crystallography, 2.50 Å [4]: the protein was found to interact with C∆4S but not C∆4S6S in the cleft
